From ChEMBL document CHEMBL4610123, “Structure-Based Drug Discovery of N-((R)-3-(7-Methyl-1H-indazol-5-yl)-1-oxo-1-(((S)-1-oxo-3-(piperidin-4-yl)-1-(4-(pyridin-4-yl)piperazin-1-yl)propan-2-yl)amino)propan-2-yl)-2'-oxo-1',2'-dihydrospiro[piperidine-4,4'-pyrido[2,3-d][1,3]oxazine]-1-carboxamide (HTL22562): A Calcitonin Gene-Related …” (J Med Chem, 2020)
≈ marks a conversion by molar mass, not a printed value.

Key:
[1] = target: T1, Calcitonin-gene-related peptide receptor, CALCRL/RAMP1 (Homo sapiens, UniProt O60894+Q16602); assay: Antagonist activity at human CGRP receptor in human SK-N-MC cells assessed as inhibition of CGRP-induced cAMP production preincubated for 30 mins followed by CGRP addition and measured after 30 mins by HTRF assay; assay type: functional, cell-based
[2] = Clearance in rat at 2 mg/kg, iv using 10% DMAC[…] Solutol HS15/80% saline formulation; assay type: ADME, organism-based; conditions: in vivo
[3] = target: T1, Calcitonin-gene-related peptide receptor, CALCRL/RAMP1; assay: Displacement of [3H]telcagepant from recombinant human CLR/RAMP1 expressed in Sf21 insect cell membranes measured after 60 mins by microbeta scintillation counting method
[4] = Thermodynamic solubility of the compound at pH 6; assay type: physicochemical; conditions: buffer, read-out: Therm_solubility
[5] = Thermodynamic solubility of the compound at pH 7.4; assay type: physicochemical; conditions: buffer, read-out: Therm_solubility
[6] = Clearance in rat at 2 mg/kg, iv using 100% acidified saline formulation; assay type: ADME, organism-based; conditions: in vivo
[7] = Clearance in rat at 0.5 mg/kg, iv; assay type: ADME, organism-based; conditions: in vivo

T1 sequence (O60894 whole entry): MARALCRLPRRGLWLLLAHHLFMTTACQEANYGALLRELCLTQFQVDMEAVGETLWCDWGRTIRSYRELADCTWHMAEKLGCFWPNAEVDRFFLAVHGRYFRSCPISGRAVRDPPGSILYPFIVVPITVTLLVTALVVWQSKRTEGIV
T1 sequence (Q16602 whole entry): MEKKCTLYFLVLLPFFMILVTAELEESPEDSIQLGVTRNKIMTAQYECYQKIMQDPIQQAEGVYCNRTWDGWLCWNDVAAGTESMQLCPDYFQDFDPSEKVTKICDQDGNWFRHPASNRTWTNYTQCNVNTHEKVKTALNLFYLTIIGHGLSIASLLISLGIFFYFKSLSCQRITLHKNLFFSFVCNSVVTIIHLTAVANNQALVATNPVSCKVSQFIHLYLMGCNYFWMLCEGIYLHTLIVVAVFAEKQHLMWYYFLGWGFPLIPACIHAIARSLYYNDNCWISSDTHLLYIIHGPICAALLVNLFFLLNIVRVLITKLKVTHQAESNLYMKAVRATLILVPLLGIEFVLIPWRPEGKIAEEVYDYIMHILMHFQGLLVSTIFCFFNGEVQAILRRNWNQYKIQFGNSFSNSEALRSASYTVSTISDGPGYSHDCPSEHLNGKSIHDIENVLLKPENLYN

O=C(N[C@@H](CC1CCNCC1)C(=O)N1CCN(c2ccncc2)CC1)[C@@H](Cc1cc(Br)c(O)c(Br)c1)NC(=O)N1CCC(N2Cc3ccccc3NC2=O)CC1
pKb [1]: 11.2
clearance [2]: 21 mL/min/kg

Cc1cc(C[C@@H](NC(=O)N2CCC(n3c(=O)[nH]c4ncccc43)CC2)C(=O)N[C@@H](Cc2ccncc2)C(=O)N2CCN(c3ccncc3)CC2)cc2cn[nH]c12
Ki [3]: 0.1 nM
pKb [1]: 10
solubility thermodynamic [4]: 1770 µM (≈ 1340 µg/mL)
solubility thermodynamic [5]: 230 µM (≈ 174 µg/mL)
clearance [6]: 87 mL/min/kg

O=C(N[C@@H](CC1CCNCC1)C(=O)N1CCN(c2ccncc2)CC1)[C@@H](Cc1cc(Br)c(O)c(Br)c1)NC(=O)N1CCC(n2c(=O)[nH]c3ncccc32)CC1
pKb [1]: 10.8
clearance [2]: 28 mL/min/kg

NCCCC[C@H](NC(=O)[C@@H](Cc1cc(Br)c(O)c(Br)c1)NC(=O)N1CCC(N2Cc3ccccc3NC2=O)CC1)C(=O)N1CCN(c2ccncc2)CC1 [OLCEGEPANT]
pKb [1]: 11.2
clearance [2]: 38 mL/min/kg

Cc1cc(C[C@@H](NC(=O)N2CCC(n3c(=O)[nH]c4ncccc43)CC2)C(=O)N[C@@H](CCCCN)C(=O)N2CCN(c3ccncc3)CC2)cc2cn[nH]c12
Ki [3]: 0.0251 nM
pKb [1]: 11

Cc1cc(C[C@@H](NC(=O)N2CCC(c3cc4ccccc4[nH]c3=O)CC2)C(=O)N[C@@H](CC2CCNCC2)C(=O)N2CCN(c3ccncc3)CC2)cc2cn[nH]c12
pKb [1]: 9.8
solubility thermodynamic [4]: 10 µM (≈ 7.73 µg/mL)
clearance [2]: 31 mL/min/kg

Cc1cc(C[C@@H](NC(=O)N2CCC(N3Cc4ccccc4NC3=O)CC2)C(=O)N[C@@H](CC2CCNCC2)C(=O)N2CCN(c3ccncc3)CC2)cc2cn[nH]c12
pKb [1]: 10.1
clearance [2]: 6 mL/min/kg

Cc1cc(C[C@@H](NC(=O)N2CCC(n3c(=O)[nH]c4ncccc43)CC2)C(=O)N[C@@H](CC2CCNCC2)C(=O)N2CCN(c3ccncc3)CC2)cc2cn[nH]c12
clearance [7]: 55 mL/min/kg
